# From patent US12552767B2, “3-heteroaryl pyrrolidine and piperidine orexin receptor agonists” (Merck Sharp & Dohme LLC, priority 2020, dated 2026)
# Target: T1, human OX2R (Homo sapiens, UniProt O43614)
# T1 construct: expressed in transfected cells; host or cells: CHO (Chinese hamster ovary) cells, grown under G418 selection
# T1 sequence (O43614 1-444): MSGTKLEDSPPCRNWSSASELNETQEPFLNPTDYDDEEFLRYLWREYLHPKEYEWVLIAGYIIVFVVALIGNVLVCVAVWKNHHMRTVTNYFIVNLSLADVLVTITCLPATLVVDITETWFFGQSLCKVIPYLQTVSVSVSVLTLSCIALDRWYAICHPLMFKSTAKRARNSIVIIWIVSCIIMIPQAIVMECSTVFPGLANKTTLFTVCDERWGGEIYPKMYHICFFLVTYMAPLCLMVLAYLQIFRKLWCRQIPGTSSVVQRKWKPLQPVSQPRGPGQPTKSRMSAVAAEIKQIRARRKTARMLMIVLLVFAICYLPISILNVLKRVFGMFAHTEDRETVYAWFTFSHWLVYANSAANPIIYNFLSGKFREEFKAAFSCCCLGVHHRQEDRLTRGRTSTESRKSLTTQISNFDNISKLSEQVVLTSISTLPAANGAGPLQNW
# Test: IP-One (IPOne) orexin receptor agonist assay in CHO cells expressing human OX2R
# Type: cell-based
# Conditions: for EC50: CHO cells expressing human OX2R, IP-One IP-1 detection, 2 hours incubation, four parameter logistic fit, read-out: OX2R Potency, EC50; for % of reference agonist maximal effect: human OX2R, percentage of sample raw value/mean max effect (reference compound at 1 uM with 100% activity)
# Description: The utility of the compounds in accordance with the present invention as orexin receptor OX1R and/or OX2R agonists may be readily determined without undue experimentation by methodology well known in the art. Both the OX1R and/or OX2R G-coupled protein receptors (GPCRs) couple through the Gαq signaling pathway, which ultimately promotes calcium mobilization via inositol triphosphate (IP3) production. The half-life of IP-3 is relatively short, being rapidly metabolized to inositol monophosphate (IP-1), which can be readily detected using a commercially available assay kit (IP-One; Cisbio; cat #621PAPEC) coupled with a cell line expressing the target receptor(s) of interest. The utility of the compounds in accordance with the present invention as orexin receptor OX1R and/or OX2R agonists may be determined utilizing this assay.
# In a typical experiment, the OX1 and OX2 receptor agonist activity is determined in accordance with the following general experimental method. Chinese hamster ovary (CHO) cells expressing human OX1R and/or the human OX2R were grown in Iscove's modified DMEM containing glutaMAX™, 1% G418, 100 U/mL penicillin, 100 μg/mL streptomycin and 10% heat-inactivated qualified fetal bovine serum (FBS). The OX2R cells were seeded at 10,000 cells/well/50 μL and the OX1R cells were seeded at 20,000 cells/well/50 μL into 384-well white tissue culture plates (Greiner; cat #781080). All cell/media reagents were from GIBCO-Invitrogen Corp. The seeded cell plate(s) were incubated at 37° C. with 5% CO2 and 85% humidity for 20-24 hours. On the day of the assay, assay-ready compound plates were prepared using an acoustic liquid handler (ECHO; Labcyte), which dispensed sufficient volume of test compound stock (10 mM in DMSO) or 100% DMSO to prepare 10 point, ½-log dilutions in a final volume of 202.5 nL/well in all test wells of a 384-well diamond plate (Labcyte). Following completion of assay-ready plates, importantly, the next three steps were performed with minimal delay: 1) 20 μl of 1× stimulation buffer was added to the compound plate using a Multidrop Combi (small cassette, Thermo Fisher Scientific cat #24073290); 2) culture medium was removed from the cell plate using the Bluewasher plate washer (gentle spin; BlueCatBio); 3) 14 μl of compound/stimulation buffer mixture was added to the cell plate using a Bravo liquid handler (Agilent) prior to incubating cell plates at 37° C. with 5% CO2 and 85% humidity for 1 or 2 hours (OX1R and OX2R, respectively). During this incubation, IP-one detection reagents were prepared (38:1:1 lysis buffer:D2:AB-cryptate reagents). Six μL of mixed detection reagents were added to the cell plate using a Multidrop Combi (small cassette, Thermo Fisher Scientific cat #24073290) and incubated 60 minutes at room temperature in the dark. Fluorescence signal was detected using an Envision plate reader (Perkin Elmer) [LANCE/DELFIA Dual Enh (Em: APC 665; Ex: Cy5 620)].
# For each compound, data were fit to a four parameter logistic fit (ActivityBase software) and the EC50 was reported as the inflection point of the resulting curve. Percent effect for each test compound was determined as the percentage of sample raw value/mean max effect, where the mean max effect was derived from the mean raw value of 32 control wells per assay plate (using Orexin A (cat #003-30) at 1 μM for human OX1R and a reference compound at 1 uM with 100% activity previously established by comparison to Orexin A for human OX2R). The intrinsic orexin receptor agonist activity of a compound which may be used in the present invention may be determined by these assays.
Structure (SMILES),EC50,% of reference agonist maximal effect
"CCNC(=O)N1CCC[C@H](c2ccn(C)n2)[C@@H]1CO[C@H]1CC[C@@H](c2ccccc2)CC1 (relative stereo) [Example 27, (CIS)-N-ethyl-3-(1-methyl-1H-pyrazol-3-yl)-2-((((CIS)-4-phenylcyclohexyl)oxy)-methyl)piperidine-1-carboxamide]",3.51 µM,82.5%
"COC(=O)N1CCC[C@H](c2cc[nH]n2)[C@@H]1CO[C@H]1CC[C@@H](c2ccccc2)CC1 (relative stereo) [Example 21, methyl (CIS)-2-((((CIS)-4-phenylcyclohexyl)oxy)methyl)-3-(1H-pyrazol-3-yl)piperidine-1-carboxylate]",2.1 µM,79.9%
"CCNC(=O)N1CCC[C@H](c2ccn[nH]2)[C@@H]1COC1CCC(C(C)C)CC1 (relative stereo) [Example 3, (CIS)-N-ethyl-2-(((4-isopropylcyclohexyl)oxy)methyl)-3-(1H-pyrazol-5-yl)piperidine-1-carboxamide]",0.676 µM,99.9%
"Cc1cn[nH]c1[C@H]1CCCN(C(=O)OCC(F)F)[C@H]1CO[C@H]1CC[C@@H](c2ccccc2)CC1 (relative stereo) [Example 24, 2,2-difluoroethyl (CIS)-3-(4-methyl-1H-pyrazol-5-yl)-2-((((CIS)-4-phenylcyclohexyl)oxy)methyl)piperidine-1-carboxylate]",0.348 µM,100.4%
"COC(=O)N1CCC[C@H](c2cccc(O)n2)[C@@H]1CO[C@H]1CC[C@@H](c2ccccc2)CC1 (relative stereo) [Example 64, Methyl (CIS)-3-(6-hydroxypyridin-2-yl)-2-((((CIS)-4-phenylcyclohexyl)oxy)methyl)piperidine-1-carboxylate]",3.06 µM,68.1%
"CCNC(=O)N1CCC[C@H](c2n[nH]cc2C)[C@@H]1CO[C@H]1CC[C@@H](c2cccc(F)c2)CC1 (racemic) [Example 10, (CIS)-N-ethyl-2-((((CIS)-4-(3-fluorophenyl)cyclohexyl)oxy)methyl)-3-(4-methyl-1H-pyrazol-3-yl)piperidine-1-carboxamide]",0.0048 µM,100.8%
"CCNC(=O)N1CCC[C@H](c2ccn[nH]2)[C@@H]1CO[C@H]1CC[C@@H](c2ccccc2)CC1 (single isomer, unassigned) [Example 1, (CIS)-N-ethyl-2-((((CIS)-4-phenylcyclohexyl)oxy)methyl)-3-(1H-pyrazol-5-yl)piperidine-1-carboxamide]",0.0673 µM,102.6%
"COCc1c[nH]nc1[C@H]1CCCN(C(=O)OC)[C@H]1CO[C@H]1CC[C@@H](c2ccccc2)CC1 (relative stereo) [Example 57, Methyl cis-3-(4-(methoxymethyl)-1H-pyrazol-3-yl)-2-((((CIS)-4-phenylcyclohexyl)oxy)methyl)-piperidine-1-carboxylate]",0.351 µM,99.6%
"CCNC(=O)N1CCCC(c2[nH]ncc2C)C1COC1CCC(C(C)C)CC1 (single isomer, unassigned) [Example 61, N-ethyl-2-(((4-isopropylcyclohexyl)oxy)methyl)-3-(4-methyl-1H-pyrazol-5-yl)piperidine-1-carboxamide]",3.51 µM,87.4%
"O=C(CO)N1CCCC(c2ccn[nH]2)C1CO[C@H]1CC[C@@H](c2c(F)ccc(F)c2F)CC1 (relative stereo) [Example 32, 1-(3-(1H-Pyrazol-5-yl)-2-((((CIS)-4-(2,3,6-trifluorophenyl)cyclohexyl)oxy)methyl)piperidin-1-yl)-2-hydroxyethan-1-one]",3.73 µM,86.3%

# Further lines, results first:
EC50,% of reference agonist maximal effect,Structure (SMILES)
5.27 µM,60.7%,"CC[C@@H](C)OC(=O)N1CCC[C@H](c2cc[nH]n2)[C@@H]1CO[C@H]1CC[C@@H](c2ccccc2)CC1 [Example 108, (R)-sec-butyl (CIS)-2-((((CIS)-4-phenylcyclohexyl)oxy)methyl)-3-(1H-pyrazol-3-yl)piperidine-1-carboxylate]"
5.22 µM,28.5%,"CC(C)[C@H]1CC[C@@H](OC[C@H]2[C@@H](c3cc[nH]n3)CCCN2C(=O)OCc2ccccc2Cl)CC1 (relative stereo) [Example 93, 2-chlorobenzyl (CIS)-2-((((CIS)-4-isopropylcyclohexyl)oxy)methyl)-3-(1H-pyrazol-3-yl)piperidine-1-carboxylate]"
6.78 µM,80.5%,"COC(=O)CCOC(=O)N1CCC[C@H](c2cc[nH]n2)[C@@H]1CO[C@H]1CC[C@@H](c2ccccc2)CC1 (relative stereo) [Example 114, 3-methoxy-3-oxopropyl (CIS)-2-((((CIS)-4-phenylcyclohexyl)oxy)methyl)-3-(1H-pyrazol-3-yl)piperidine-1-carboxylate]"
3.11 µM,99.5%,"COCC[C@H](N)C(=O)N1CCC[C@H](c2cc[nH]n2)[C@@H]1COC1CCC(C(C)C)CC1 (stereo partly drawn) [Example 72, (S)-2-amino-1-((CIS)-2-((((CIS)-4-isopropylcyclohexyl)oxy)methyl)-3-(1H-pyrazol-3-yl)piperidin-1-yl)-4-methoxybutan-1-one]"
0.754 µM,91.3%,"O=C(OCC(F)F)N1CCC[C@H](c2cc[nH]n2)[C@@H]1CO[C@H]1CC[C@@H](c2ccccc2)CC1 (relative stereo) [Example 96, 2,2-difluoroethyl (CIS)-2-((((CIS)-4-phenylcyclohexyl)oxy)methyl)-3-(1H-pyrazol-3-yl)piperidine-1-carboxylate]"
4.43 µM,92.6%,"O=C(N1CCC[C@H](c2cc[nH]n2)[C@@H]1CO[C@H]1CC[C@@H](c2ccccc2)CC1)C1(O)CC1 (relative stereo) [Example 78, (1-hydroxycyclopropyl)((CIS)-2-((((CIS)-4-phenylcyclohexyl)oxy)methyl)-3-(1H-pyrazol-3-yl)piperidin-1-yl)methanone]"
7.47 µM,51.4%,"C#C[C@H](C)OC(=O)N1CCC[C@H](c2cc[nH]n2)[C@@H]1CO[C@H]1CC[C@@H](c2ccccc2)CC1 [Example 115, (S)-but-3-yn-2-yl (CIS)-2-((((CIS)-4-phenylcyclohexyl)oxy)methyl)-3-(1H-pyrazol-3-yl)piperidine-1-carboxylate]"
7.08 µM,73.9%,"CC(C)[C@H]1CC[C@@H](OC[C@H]2[C@@H](c3cc[nH]n3)CCCN2C(=O)C2CCCC2)CC1 (relative stereo) [Example 83, cyclopentyl((CIS)-2-((((CIS)-4-isopropylcyclohexyl)oxy)methyl)-3-(1H-pyrazol-3-yl)piperidin-1-yl)methanone]"
